Laboratory results reported in ChEMBL document CHEMBL1201862, “PubChem BioAssay data set” (2004).
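All cell lines were grown in 96-well plates and treated with compound for 48 hours. GI50 = concentration required for 50% inhibition of growth.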 Calls of active or inactive are those of the source. Cut-off read from the data, not from the text of the source: active = GI50 up to about 1.1 µM and inactive = higher.

Columns and labels:
Assay in all cases: inhibition of tumour cell growth, NCI panel, 48 h
[1] = system: COLO 205
[2] = system: DU-145
[3] = system: HOP-62
[4] = system: IGROV-1
[5] = system: M14
[6] = system: MDA-MB-231
[7] = system: NCI-H226
[8] = system: OVCAR-5
[9] = system: OVCAR-8
[10] = system: SF-268
[11] = system: SK-MEL-5
[12] = system: SNB-19
[13] = system: SNB-75
[14] = system: TK-10
[15] = system: UACC-257
[16] = system: UACC-62
[17] = system: UO-31
[18] = system: KM12
[19] = system: NCI-H522

Measured: GI50

CN(C)/C=[N+]1/[C@@H](Cc2ccccc2)C(=O)O[B-]1(F)c1ccccc1 (stereo not given in full)
inactive: [1] > 100 µM | [2] > 100 µM | [3] > 100 µM | [4] > 100 µM | [5] > 100 µM | [6] > 100 µM | [7] > 100 µM | [8] > 100 µM | [9] > 100 µM | [10] > 100 µM | [11] > 100 µM | [12] > 100 µM | [13] > 100 µM | [14] > 100 µM | [15] > 100 µM | [16] > 100 µM | [17] > 100 µM

O=c1cccc2n1CC1CNC[C@H]2C1 [CYTISINICLINE]
inactive: [1] > 100 µM | [2] > 100 µM | [3] > 100 µM | [4] > 100 µM | [18] > 100 µM | [5] > 100 µM | [6] > 100 µM | [19] > 100 µM | [8] > 100 µM | [9] > 100 µM | [10] > 100 µM | [11] > 100 µM | [12] > 100 µM | [13] > 100 µM | [14] > 100 µM | [15] > 100 µM | [16] > 100 µM | [17] > 100 µM

CCCCCCc1ccc(CCCCCCCC(=O)O)o1
inactive: [1] > 100 µM | [2] > 100 µM | [3] > 100 µM | [4] > 100 µM | [18] 70.8 µM | [5] > 100 µM | [7] 94 µM | [8] > 100 µM | [9] > 100 µM | [11] > 100 µM | [12] > 100 µM | [13] 55.7 µM | [15] > 100 µM | [17] > 100 µM

COC1=CC(=O)c2c(CCNC(=O)OCc3ccccc3)n[nH]c2C1=O
inactive: [1] 18.8 µM | [3] 22.3 µM | [4] 15.4 µM | [18] 10 µM | [5] 12.6 µM | [6] 17.3 µM | [19] 7.78 µM | [8] 18.1 µM | [9] 23.1 µM | [11] 3.97 µM | [12] 14.7 µM | [14] 34 µM | [15] 14.9 µM | [16] 5.79 µM | [17] 14.6 µM

COc1cc(/C=N/c2ccc(S(N)(=O)=O)cc2)cc(OC)c1
inactive: [1] > 50 µM | [2] > 50 µM | [3] > 50 µM | [4] 18.2 µM | [18] 30.1 µM | [5] > 50 µM | [6] 20.1 µM | [7] > 50 µM | [8] > 50 µM | [9] > 50 µM | [10] > 50 µM | [11] > 50 µM | [12] > 50 µM | [13] 25.6 µM | [14] > 50 µM | [15] > 50 µM | [16] > 50 µM | [17] > 50 µM

COc1cc(C(O)C(=O)c2cnc3cc([N+](=O)[O-])ccc3n2)ccc1O (stereo not given)
inactive: [1] > 100 µM | [3] 85.5 µM | [4] > 100 µM | [18] > 100 µM | [5] > 100 µM | [9] > 100 µM | [11] > 100 µM | [12] > 100 µM | [13] > 100 µM | [14] > 100 µM | [15] > 100 µM | [16] 62.1 µM | [17] > 100 µM

O=[N+]([O-])c1ccc(CSc2nncc3[nH]cnc23)cc1
inactive: [1] > 100 µM | [3] > 100 µM | [4] > 100 µM | [18] > 100 µM | [5] > 100 µM | [6] > 100 µM | [7] > 100 µM | [19] > 100 µM | [8] > 100 µM | [9] > 100 µM | [11] > 100 µM | [13] 80.2 µM | [14] > 100 µM | [15] > 100 µM | [16] 62.4 µM | [17] 33.4 µM

COc1ccc2c(c1)CCC1=C/C(=N\NC(N)=O)CCC12C (stereo not given)
inactive: [1] > 10 µM | [2] > 10 µM | [3] > 10 µM | [4] > 10 µM | [18] > 10 µM | [5] > 10 µM | [6] > 10 µM | [19] > 10 µM | [9] > 10 µM | [10] > 10 µM | [11] > 10 µM | [12] > 10 µM | [13] > 10 µM | [14] > 10 µM | [15] > 10 µM | [16] 6.41 µM

CCOP(=O)(OCC)C(F)(F)c1ccc(CC(NC(=O)OC(C)(C)C)C(=O)O)cc1 (stereo not given)
inactive: [1] > 10 µM | [2] > 10 µM | [3] 5.15 µM | [4] > 10 µM | [18] > 10 µM | [5] > 10 µM | [6] > 10 µM | [7] > 10 µM | [8] > 10 µM | [9] > 10 µM | [10] > 10 µM | [11] > 10 µM | [12] > 10 µM | [13] > 10 µM | [14] > 10 µM | [15] > 10 µM | [16] > 10 µM | [17] > 10 µM

O=C(C=P(c1ccccc1)(c1ccccc1)c1ccccc1)c1ccc(-c2cccc([N+](=O)[O-])c2)s1
inactive: [1] 14 µM | [2] > 100 µM | [3] > 100 µM | [4] 50 µM | [18] 42 µM | [5] > 100 µM | [6] > 100 µM | [19] 23.7 µM | [8] > 100 µM | [9] 47.3 µM | [10] > 100 µM | [11] 29.9 µM | [12] > 100 µM | [13] 24 µM | [14] 83.8 µM | [16] 59 µM | [17] 48.2 µM

COC(=O)C1=COC(OC2OC(CO)C(O)C(O)C2O)C2C3CN4CCc5c([nH]c6ccccc56)C4(CC12)O3 (stereo not given)
inactive: [1] > 100 µM | [2] > 100 µM | [3] > 100 µM | [4] 46.5 µM | [18] > 100 µM | [5] > 100 µM | [6] > 100 µM | [7] > 100 µM | [8] > 100 µM | [9] > 100 µM | [10] 31.9 µM | [11] > 100 µM | [12] > 100 µM | [13] > 100 µM | [14] > 100 µM | [15] > 100 µM | [16] > 100 µM | [17] > 100 µM

Cc1nn(-c2ccccc2)c(C)c1/C=N/NC(=O)c1sc(=S)n(-c2ccc(Cl)cc2)c1N
inactive: [1] 4.69 µM | [2] > 100 µM | [3] 6.44 µM | [4] 1.49 µM | [18] 8.3 µM | [5] 5.24 µM | [6] 5.02 µM | [7] 34.5 µM | [8] 6.44 µM | [9] 32.3 µM | [10] 9.57 µM | [11] 4.03 µM | [12] > 100 µM | [13] 1.48 µM | [14] 1.87 µM | [15] 14.4 µM | [16] 5.98 µM | [17] 4.33 µM

C=C(C)C1Cc2c(cc(O)c3c(=O)c4c(oc23)C(O)Oc2cc(OC)c(OC)cc2-4)O1 (stereo not given)
inactive: [1] > 10 µM | [2] > 10 µM | [3] > 10 µM | [4] > 10 µM | [18] > 10 µM | [5] > 10 µM | [6] > 10 µM | [7] 6.97 µM | [8] > 10 µM | [9] > 10 µM | [10] > 10 µM | [12] > 10 µM | [14] > 10 µM | [15] > 10 µM | [16] > 10 µM | [17] > 10 µM

CC(=O)Nc1ccc(OC2=CCN(C)CC2)cc1
inactive: [1] > 100 µM | [2] > 100 µM | [3] > 100 µM | [4] > 100 µM | [18] > 100 µM | [5] > 100 µM | [6] > 100 µM | [7] > 100 µM | [8] > 100 µM | [9] > 100 µM | [10] > 100 µM | [11] > 100 µM | [12] > 100 µM | [13] > 100 µM | [14] > 100 µM | [15] > 100 µM | [16] > 100 µM | [17] > 100 µM

Cc1ccc(S(=O)(=O)N(CC(O)COc2ccccc2)c2ccc(F)cc2F)cc1 (stereo not given)
inactive: [1] 15.3 µM | [2] 16.6 µM | [3] 15.5 µM | [18] 20 µM | [5] 17.3 µM | [6] 17.4 µM | [7] 18.8 µM | [8] 18.1 µM | [9] 17.3 µM | [10] 15.3 µM | [11] 14.7 µM | [12] 18.1 µM | [13] 14.8 µM | [14] 21.5 µM | [15] 17.9 µM | [16] 13.5 µM | [17] 13.9 µM

COc1cc(C2C3=C(NC(=O)C2C#N)c2ccc4ccccc4c2OCC3)cc(OC)c1OC (stereo not given)
inactive: [1] 15.4 µM | [2] 34.4 µM | [3] 20 µM | [4] 16.2 µM | [18] 44.9 µM | [5] 50 µM | [19] 28.9 µM | [8] 17.6 µM | [9] 86.7 µM | [10] 22.8 µM | [11] 28.2 µM | [12] 28.3 µM | [13] 16.2 µM | [14] > 100 µM | [15] 56.5 µM | [17] 15.1 µM
